Tests used:
[1] = biological target: T1, 5-hydroxytryptamine receptor 1A (Homo sapiens, UniProt P08908); test: Activity against 5HT1A receptor by Gi-[35S]GTP-gamma-S binding assay; assay type: functional
T1 sequence (P08908 whole entry): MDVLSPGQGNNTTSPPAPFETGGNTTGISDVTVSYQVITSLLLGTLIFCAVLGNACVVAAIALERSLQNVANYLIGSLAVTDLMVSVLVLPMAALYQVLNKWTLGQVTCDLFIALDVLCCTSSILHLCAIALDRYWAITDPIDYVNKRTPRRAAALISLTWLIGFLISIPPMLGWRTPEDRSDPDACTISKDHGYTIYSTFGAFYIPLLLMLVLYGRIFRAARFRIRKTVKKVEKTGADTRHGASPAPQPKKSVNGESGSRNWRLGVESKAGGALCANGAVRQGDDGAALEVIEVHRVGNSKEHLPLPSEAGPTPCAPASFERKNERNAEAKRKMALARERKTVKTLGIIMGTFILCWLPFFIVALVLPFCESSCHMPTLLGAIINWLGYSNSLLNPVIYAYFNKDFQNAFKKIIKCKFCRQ

[2] = biological target: T2, Adrenergic receptor alpha-1 (Rattus norvegicus) (UniProt P15823+P23944+P43140); test: Displacement of [3H]prazosin from Adrenergic alpha-1 receptor in rat cerebral cortex cells at 1 uM
[3] = Half life in human liver microsome at 5 uM; assay type: ADME; settings: liver microsomes
[4] = biological target: T3, Alpha-2A adrenergic receptor (Rattus norvegicus) (UniProt P22909); test: Displacement of [3H]RX 821002 from Adrenergic alpha-2a receptor in rat cerebral cortex cells at 1 uM; assay type: cell-based
T3 sequence (whole entry): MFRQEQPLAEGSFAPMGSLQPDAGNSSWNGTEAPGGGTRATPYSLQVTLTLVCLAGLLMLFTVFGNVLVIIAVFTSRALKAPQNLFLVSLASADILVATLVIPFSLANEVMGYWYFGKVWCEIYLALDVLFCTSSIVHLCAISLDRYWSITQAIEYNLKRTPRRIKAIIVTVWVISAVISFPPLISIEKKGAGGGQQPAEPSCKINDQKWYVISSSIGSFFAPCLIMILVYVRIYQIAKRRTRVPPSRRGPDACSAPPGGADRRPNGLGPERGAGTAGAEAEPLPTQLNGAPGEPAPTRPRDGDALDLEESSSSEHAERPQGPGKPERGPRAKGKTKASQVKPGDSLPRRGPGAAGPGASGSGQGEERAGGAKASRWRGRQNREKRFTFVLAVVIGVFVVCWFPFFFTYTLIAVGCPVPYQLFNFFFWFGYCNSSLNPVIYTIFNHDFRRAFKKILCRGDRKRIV

[5] = Half life in human liver S9 fraction at 5 uM; assay type: ADME
[6] = biological target: T2, Adrenergic receptor alpha-1 (Rattus norvegicus); test: Displacement of [3H]prazosin from Adrenergic alpha-1 receptor in rat cerebral cortex cells at 1 uM; assay type: cell-based
[7] = biological target: T1, 5-hydroxytryptamine receptor 1A; test: Displacement of [3H]8-OH-DPAT from human 5HT1A receptor in HEK293 cells
hERG (KCNH2) = hERG (KCNH2) (Homo sapiens, UniProt Q12809); test: Inhibition of hERG potassium channel in HEK293 cells by patch clamp assay at 1 uM; settings: HEK293 cells that express hERG
[8] = biological target: Voltage-gated inwardly rectifying potassium channel KCNH2 (Homo sapiens, UniProt Q12809); test: Inhibition of hERG potassium channel in HEK293 cells by patch clamp assay
[9] = Half life in Sprague-Dawley rat at 3 mg/kg, po; assay type: ADME, organism-based; parameters: dose 3 mg/kg, route oral; settings: in vivo
[10] = biological target: T4, Adrenergic receptor alpha-1 (Rattus norvegicus, UniProt P15823+P23944+P43140); test: Displacement of [3H]prazosin from adrenergic alpha-1 receptor in rat cerebral cortex cells; assay type: cell-based
T4 sequence (P15823 whole entry): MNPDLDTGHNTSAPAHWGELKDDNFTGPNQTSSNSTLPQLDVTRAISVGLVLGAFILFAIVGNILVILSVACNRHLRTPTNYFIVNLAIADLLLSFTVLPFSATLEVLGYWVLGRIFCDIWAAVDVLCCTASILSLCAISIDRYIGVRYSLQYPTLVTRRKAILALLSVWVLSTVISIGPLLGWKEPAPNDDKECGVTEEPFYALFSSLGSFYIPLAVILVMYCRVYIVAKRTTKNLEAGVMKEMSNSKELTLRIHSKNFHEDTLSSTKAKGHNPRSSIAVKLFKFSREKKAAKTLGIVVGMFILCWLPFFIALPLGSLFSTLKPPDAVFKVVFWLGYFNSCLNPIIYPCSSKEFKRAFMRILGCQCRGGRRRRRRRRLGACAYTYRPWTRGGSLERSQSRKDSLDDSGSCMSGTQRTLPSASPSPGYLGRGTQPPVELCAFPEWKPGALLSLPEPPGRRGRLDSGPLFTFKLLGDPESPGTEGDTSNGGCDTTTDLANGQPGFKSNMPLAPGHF
T4 sequence (P23944 whole entry): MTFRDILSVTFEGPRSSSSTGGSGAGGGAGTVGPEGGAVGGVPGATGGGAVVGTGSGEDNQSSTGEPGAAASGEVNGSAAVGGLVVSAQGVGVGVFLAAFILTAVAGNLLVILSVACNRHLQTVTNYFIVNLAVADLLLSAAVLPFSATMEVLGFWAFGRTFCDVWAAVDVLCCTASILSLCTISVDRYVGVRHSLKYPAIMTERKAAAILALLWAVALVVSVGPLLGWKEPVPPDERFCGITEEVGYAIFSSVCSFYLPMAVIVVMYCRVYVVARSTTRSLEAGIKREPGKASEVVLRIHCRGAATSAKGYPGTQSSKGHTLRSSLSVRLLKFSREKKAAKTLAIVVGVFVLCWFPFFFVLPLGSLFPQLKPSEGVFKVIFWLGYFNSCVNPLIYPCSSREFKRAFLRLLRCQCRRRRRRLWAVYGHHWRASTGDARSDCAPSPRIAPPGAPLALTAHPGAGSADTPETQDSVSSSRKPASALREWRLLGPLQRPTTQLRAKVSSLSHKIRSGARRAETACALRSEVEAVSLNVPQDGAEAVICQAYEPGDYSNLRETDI
T4 sequence (P43140 whole entry): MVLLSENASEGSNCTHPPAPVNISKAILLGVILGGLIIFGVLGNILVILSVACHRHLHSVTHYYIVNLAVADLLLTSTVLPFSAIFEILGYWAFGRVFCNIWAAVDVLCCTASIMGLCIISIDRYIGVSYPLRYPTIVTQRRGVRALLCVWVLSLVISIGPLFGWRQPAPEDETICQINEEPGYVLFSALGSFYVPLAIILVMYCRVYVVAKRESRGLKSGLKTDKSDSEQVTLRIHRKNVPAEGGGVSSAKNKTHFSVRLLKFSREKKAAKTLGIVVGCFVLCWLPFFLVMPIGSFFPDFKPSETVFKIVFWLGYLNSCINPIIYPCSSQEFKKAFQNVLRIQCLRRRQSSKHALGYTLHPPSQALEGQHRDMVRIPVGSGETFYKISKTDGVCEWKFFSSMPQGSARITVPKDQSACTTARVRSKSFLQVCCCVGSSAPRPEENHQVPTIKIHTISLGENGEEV

[11] = Oral bioavailability in Sprague-Dawley rat at 3 mg/kg, po and 1 mg/kg, iv; assay type: ADME, organism-based; settings: in vivo
Cytochrome P450 2C9 = Cytochrome P450 2C9 (Homo sapiens, UniProt P11712); test: Inhibition of human recombinant cytochrome P450 2C9; assay type: ADME; settings: recombinant enzyme
Cytochrome P450 1A2 = Cytochrome P450 1A2 (Homo sapiens, UniProt P05177); test: Inhibition of human recombinant cytochrome P450 1A2; assay type: ADME; settings: recombinant enzyme
[12] = Cmax in Sprague-Dawley rat at 3 mg/kg, po; assay type: ADME, organism-based; parameters: dose 3 mg/kg, route oral; settings: in vivo
Cytochrome P450 2C19 = Cytochrome P450 2C19 (Homo sapiens, UniProt P33261); test: Inhibition of human recombinant cytochrome P450 2C19; assay type: ADME; settings: recombinant enzyme
D(2) dopamine receptor = D(2) dopamine receptor (Homo sapiens, UniProt P14416); test: Binding affinity to D2 receptor by radioligand binding assay
[13] = Protein binding in human serum at 2 uM; assay type: ADME, organism-based; settings: read-out: PPB (converted)
Cytochrome P450 2D6 = Cytochrome P450 2D6 (Homo sapiens, UniProt P10635); test: Inhibition of human recombinant cytochrome P450 2D6; assay type: ADME; settings: recombinant enzyme
Cytochrome P450 3A4 = Cytochrome P450 3A4 (Homo sapiens, UniProt P08684); test: Inhibition of human recombinant cytochrome P450 3A4; assay type: ADME; settings: recombinant enzyme
[14] = Oral bioavailability in Beagle dog at 3 mg/kg, po and 1 mg/kg, iv; assay type: ADME, organism-based, Canis lupus familiaris; settings: in vivo
[15] = Cmax in Beagle dog at 3 mg/kg, po; assay type: ADME, organism-based, Canis lupus familiaris; parameters: dose 3 mg/kg, route oral; settings: in vivo
[16] = Half life in Beagle dog at 3 mg/kg, po; assay type: ADME, organism-based, Canis lupus familiaris; parameters: dose 3 mg/kg, route oral; settings: in vivo

Chain of D(2) dopamine receptor (P14416 whole entry): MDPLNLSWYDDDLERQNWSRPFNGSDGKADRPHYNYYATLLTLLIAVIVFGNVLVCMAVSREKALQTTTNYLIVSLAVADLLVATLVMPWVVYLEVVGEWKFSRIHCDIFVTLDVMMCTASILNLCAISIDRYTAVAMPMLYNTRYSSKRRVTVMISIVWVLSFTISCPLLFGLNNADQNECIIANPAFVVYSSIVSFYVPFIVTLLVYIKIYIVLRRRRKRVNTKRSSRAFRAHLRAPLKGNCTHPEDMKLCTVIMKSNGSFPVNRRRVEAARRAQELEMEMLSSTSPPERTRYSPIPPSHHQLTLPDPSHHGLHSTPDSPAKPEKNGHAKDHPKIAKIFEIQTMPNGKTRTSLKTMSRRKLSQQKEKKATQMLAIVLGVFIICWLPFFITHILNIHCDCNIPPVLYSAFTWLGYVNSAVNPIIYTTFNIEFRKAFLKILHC
Chain of Cytochrome P450 1A2 (P05177 whole entry): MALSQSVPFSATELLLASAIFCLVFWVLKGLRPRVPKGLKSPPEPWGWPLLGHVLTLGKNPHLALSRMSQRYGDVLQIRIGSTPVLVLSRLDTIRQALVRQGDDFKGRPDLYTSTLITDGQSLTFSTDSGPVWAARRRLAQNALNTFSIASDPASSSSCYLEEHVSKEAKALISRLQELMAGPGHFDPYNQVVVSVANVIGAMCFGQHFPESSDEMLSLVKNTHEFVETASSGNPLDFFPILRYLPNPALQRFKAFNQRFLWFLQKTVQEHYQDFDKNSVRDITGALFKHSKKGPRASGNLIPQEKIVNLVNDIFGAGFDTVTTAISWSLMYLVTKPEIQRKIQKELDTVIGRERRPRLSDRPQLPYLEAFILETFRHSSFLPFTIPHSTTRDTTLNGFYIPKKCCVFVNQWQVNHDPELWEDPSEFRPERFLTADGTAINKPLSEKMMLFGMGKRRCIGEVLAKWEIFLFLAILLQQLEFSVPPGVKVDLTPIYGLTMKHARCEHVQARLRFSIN
Chain of hERG (KCNH2) (Q12809 whole entry): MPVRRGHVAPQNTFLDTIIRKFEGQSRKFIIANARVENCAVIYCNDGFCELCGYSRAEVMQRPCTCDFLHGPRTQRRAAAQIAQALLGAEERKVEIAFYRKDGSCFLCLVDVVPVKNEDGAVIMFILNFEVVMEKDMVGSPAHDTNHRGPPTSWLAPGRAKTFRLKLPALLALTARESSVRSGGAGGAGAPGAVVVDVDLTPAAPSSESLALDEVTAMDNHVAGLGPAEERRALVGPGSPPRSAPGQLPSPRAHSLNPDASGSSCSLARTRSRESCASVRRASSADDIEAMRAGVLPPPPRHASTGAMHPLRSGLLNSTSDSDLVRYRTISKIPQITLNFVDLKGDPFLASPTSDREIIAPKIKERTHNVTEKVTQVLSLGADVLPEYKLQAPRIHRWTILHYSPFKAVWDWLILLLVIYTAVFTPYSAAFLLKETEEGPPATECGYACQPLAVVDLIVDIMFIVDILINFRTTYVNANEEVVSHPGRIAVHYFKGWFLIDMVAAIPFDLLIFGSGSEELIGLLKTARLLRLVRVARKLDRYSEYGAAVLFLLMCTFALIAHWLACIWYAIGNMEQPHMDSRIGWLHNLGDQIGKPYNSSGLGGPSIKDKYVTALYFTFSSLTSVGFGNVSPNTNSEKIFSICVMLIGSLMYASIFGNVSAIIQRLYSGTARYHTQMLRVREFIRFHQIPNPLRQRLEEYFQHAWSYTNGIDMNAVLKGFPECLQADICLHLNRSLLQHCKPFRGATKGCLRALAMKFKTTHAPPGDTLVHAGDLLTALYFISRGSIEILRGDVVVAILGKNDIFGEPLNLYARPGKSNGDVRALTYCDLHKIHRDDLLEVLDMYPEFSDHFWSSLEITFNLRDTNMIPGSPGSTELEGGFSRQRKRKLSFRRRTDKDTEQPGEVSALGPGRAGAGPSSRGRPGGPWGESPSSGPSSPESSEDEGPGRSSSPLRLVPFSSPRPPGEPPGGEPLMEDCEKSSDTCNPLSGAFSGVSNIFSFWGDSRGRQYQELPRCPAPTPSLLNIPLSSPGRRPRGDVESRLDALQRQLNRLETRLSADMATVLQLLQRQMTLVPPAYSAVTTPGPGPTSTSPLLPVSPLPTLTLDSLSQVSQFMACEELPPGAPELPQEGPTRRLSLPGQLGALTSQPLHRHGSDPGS
Chain of Voltage-gated inwardly rectifying potassium channel KCNH2 (Q12809 whole entry): as above
Chain of Cytochrome P450 2C9 (P11712 whole entry): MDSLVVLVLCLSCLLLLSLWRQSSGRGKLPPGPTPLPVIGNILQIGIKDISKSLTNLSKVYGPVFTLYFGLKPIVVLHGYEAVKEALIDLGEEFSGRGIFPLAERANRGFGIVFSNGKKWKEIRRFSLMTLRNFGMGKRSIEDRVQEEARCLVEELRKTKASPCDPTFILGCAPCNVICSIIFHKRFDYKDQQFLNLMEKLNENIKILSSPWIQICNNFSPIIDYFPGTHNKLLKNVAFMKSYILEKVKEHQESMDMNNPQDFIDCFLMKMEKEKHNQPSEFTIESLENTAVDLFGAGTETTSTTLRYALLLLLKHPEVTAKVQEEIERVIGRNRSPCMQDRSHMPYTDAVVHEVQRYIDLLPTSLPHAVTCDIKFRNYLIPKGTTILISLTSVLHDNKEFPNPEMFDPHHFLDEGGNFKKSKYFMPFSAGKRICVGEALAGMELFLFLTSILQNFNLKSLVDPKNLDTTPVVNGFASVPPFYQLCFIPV
Chain of Cytochrome P450 2D6 (P10635 whole entry): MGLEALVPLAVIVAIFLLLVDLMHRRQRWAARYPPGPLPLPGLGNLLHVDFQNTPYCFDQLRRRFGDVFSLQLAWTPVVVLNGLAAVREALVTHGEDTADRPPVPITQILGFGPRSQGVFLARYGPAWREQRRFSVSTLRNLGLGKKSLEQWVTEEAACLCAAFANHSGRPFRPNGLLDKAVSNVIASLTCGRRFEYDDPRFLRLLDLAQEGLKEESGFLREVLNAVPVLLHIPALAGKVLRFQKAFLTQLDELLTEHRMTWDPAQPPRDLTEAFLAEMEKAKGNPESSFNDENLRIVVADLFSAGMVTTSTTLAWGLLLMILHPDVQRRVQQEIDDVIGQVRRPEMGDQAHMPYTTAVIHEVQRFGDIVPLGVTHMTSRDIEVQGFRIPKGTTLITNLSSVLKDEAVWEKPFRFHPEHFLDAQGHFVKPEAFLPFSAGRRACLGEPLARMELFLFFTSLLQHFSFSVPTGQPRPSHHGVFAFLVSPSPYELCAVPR
Chain of Cytochrome P450 3A4 (P08684 whole entry): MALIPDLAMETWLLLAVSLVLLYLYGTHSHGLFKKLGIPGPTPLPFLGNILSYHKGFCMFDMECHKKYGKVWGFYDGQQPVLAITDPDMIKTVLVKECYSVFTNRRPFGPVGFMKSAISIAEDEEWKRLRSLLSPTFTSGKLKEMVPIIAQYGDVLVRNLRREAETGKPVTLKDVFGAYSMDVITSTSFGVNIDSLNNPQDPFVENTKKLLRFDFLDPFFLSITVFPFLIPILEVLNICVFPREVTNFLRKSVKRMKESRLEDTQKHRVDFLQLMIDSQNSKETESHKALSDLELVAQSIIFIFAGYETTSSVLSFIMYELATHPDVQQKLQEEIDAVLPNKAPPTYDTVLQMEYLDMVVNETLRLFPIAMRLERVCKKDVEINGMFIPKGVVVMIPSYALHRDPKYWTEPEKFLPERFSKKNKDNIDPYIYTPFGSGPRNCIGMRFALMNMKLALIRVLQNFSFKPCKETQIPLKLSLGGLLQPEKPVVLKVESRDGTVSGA

CC(=O)Nc1cccc(N2CCN(CCCCN(C)S(=O)(=O)CC3CCCCC3)CC2)c1
EC50 [1]: 3.6 nM | Activity [2]: 37% | half-life at 5 µM [3]: 12 min | Activity [4]: 47% | half-life at 5 µM [5]: 65 min | Activity [6]: 37%

CC(=O)Nc1cccc(N2CCN(CCCCN(C)S(=O)(=O)CC(C)C)CC2)c1
EC50 [1]: 32 nM | Activity [2]: 27% | half-life at 5 µM [3]: > 45 min | Activity [4]: 16% | Ki [7]: 9.7 nM | Activity [6]: 27% | inhibition at 1 µM (hERG (KCNH2)): 31% | IC50 [8]: 2200 nM

Cc1ccc(S(=O)(=O)NCCCCN2CCN(c3cccc(NS(=O)(=O)C(C)C)c3)CC2)cc1
Activity [4]: 12% | Ki [7]: 47 nM | Activity [6]: 47%

CCC(=O)Nc1cccc(N2CCN(CCCCNS(=O)(=O)c3ccc(C)cc3)CC2)c1
Activity [4]: 31% | Ki [7]: 426 nM | Activity [6]: 0%

Cc1ccc(S(=O)(=O)NCCCCN2CCN(c3cccc(NC(=O)C4CC4)c3)CC2)cc1
Activity [4]: 10% | Ki [7]: 22 nM | Activity [6]: < 10%

CC(=O)Nc1cccc(N2CCN(CCCCNS(=O)(=O)c3ccc(C)cc3)CC2)c1
half-life [9]: 198 min | Ki [10]: > 3.5 µM | half-life at 5 µM [3]: 39 min | Activity [4]: 43% | Activity [6]: 22% | bioavailability [11]: 15%

CC(=O)Nc1cccc(N2CCN(CC3CCN(S(=O)(=O)CC4CCCCC4)CC3)CC2)c1
half-life [9]: 45 min | Activity [4]: 13% | Activity [6]: < 10%

Cc1ccc(S(=O)(=O)NCCCCN2CCN(c3cccc(NC(=O)C(C)C)c3)CC2)cc1
Activity [4]: < 10% | Ki [7]: 78 nM | Activity [6]: 15%

CC(=O)Nc1cccc(N2CCN(CCCCNS(=O)(=O)CC(C)C)CC2)c1
EC50 [1]: 60 nM | Inhibition (Cytochrome P450 2C9): Not Active | half-life [9]: 210 min | Ki [10]: > 5 µM | Inhibition (Cytochrome P450 1A2): Not Active | Cmax [12]: 350 ng/mL | half-life at 5 µM [3]: > 90 min | Activity [4]: 0% | Ki [7]: 9.2 nM | Inhibition (Cytochrome P450 2C19): Not Active | Ki (D(2) dopamine receptor): > 5 µM | fraction unbound at 2 µM [13]: 0.43 | Activity [6]: 5% | Inhibition (Cytochrome P450 2D6): Not Active | Inhibition (Cytochrome P450 3A4): Not Active | bioavailability [14]: > 80% | Cmax [15]: 600 ng/mL | half-life [16]: 144 min | bioavailability [11]: 50%

CC(=O)Nc1cccc(N2CCN(CC3CCN(S(=O)(=O)C(C)C)CC3)CC2)c1
Activity [4]: < 10% | Activity [6]: < 10%

CC(=O)Nc1cccc(N2CCN(CC3CCN(S(=O)(=O)c4ccc(F)cc4)CC3)CC2)c1
Activity [4]: < 10% | Activity [6]: 49%

CC(=O)Nc1cccc(N2CCN(CCCCNS(=O)(=O)C(C)C)CC2)c1
Activity [4]: < 10% | Activity [6]: < 10%

Source: ChEMBL document CHEMBL1147799, “An integrated in silico 3D model-driven discovery of a novel, potent, and selective amidosulfonamide 5-HT1A agonist (PRX-00023) for the treatment of anxiety and depression” (J Med Chem, 2006)
